From US9597297B2, “Combination of pilocarpin and methimazol for treating Charcot-Marietooth disease and related disorders” (PHARNEXT, priority 2008, dated 2017)

Key:
[1] = test system: PMP22 protein; assay: PMP22 protein expression analysis by flow cytometry (FACS) in primary rat Schwann cells; type: cell-based; details: 1 μM
Experimental: One day later, primary Schwann cells are stimulated by drugs during 24 hrs (3 wells/condition). The preparation of each compound is performed just prior to its addition to the cell culture medium. The following PCR conditions are used: Denaturation 5 min at 95° C. followed by 10 sec at 95° C., 40 sec at 60° C. and 10 sec at 72° C. and 1 min at 40° C. (Forty amplification cycles). The relative levels of PMP22 gene expression are measured following the Ct method comparing the quantity of products generated from the target gene PMP22 and the […] 8 hrs, 24 hrs and 48 hrs after drugs incubation, supernatants of primary rat Schwann cells are recovered, centrifuged and frozen. SC are detached with trypsin-EDTA. As soon as the majority of cells are in suspension, the trypsin is neutralised using DMEM with 10% FCS. Supernatants with cells are recovered and centrifuged. […] Forward Scatter (FSC) correlated with cell volume (size) and Side Scatter (SSC) depending on inner complexity of cells (granularity) are analysed. For expression of PMP22, analysis is performed within the total cells and percent of positive cells is calculated. Positive cells are cells with fluorescence intensity higher than the control with secondary antibody.

[2] = test system: CMT transgenic rat model (PMP22 transgenic rats); assay: Electrophysiology: sensitive nerve potential amplitude (SNAP) in CMT rats; type: in vivo; details: CMT TG rats treated 20 weeks vs TG placebo
Experimental: When appropriate, the rats are subjected to electrophysiological evaluation: the sensitive nerve conduction velocity as well as latencies and potential amplitude are measured.
NCV measurement and potential acquisition (subcutaneous) were performed with the help of the chain composed of an amplificator (AM System 1700 and/or EMG-UTC), a stimulator (Havard apparatus 223) and a computer equipped with an acquisition card and a software for acquisition (SPATOL) and for the signal treatment (CALVISE).
Animals were anesthetized using ketamine/xalazine and maintained on the thermostated plate at 37° C. throughout the test (anaesthetics were supplemented as needed). Stimulating silver needle electrodes were inserted in the proximal part of the tail. The recording electrode was inserted subcutaneously through about 1 mm of skin in the distal part of the tail (4 and 6 cm from the stimulating electrode). Constant-current square-wave stimuli, […] in duration, were administered at a frequency of 0.3 per second. Responses, amplified 5.000-20.000, were visualized and collected on a computer based data acquisition system. Latencies were measured at each wave onset (defined as the first clearly identifiable deflection from the baseline). Peak to peak amplitudes of the largest deflections were calculated to determine maximum amplitude. For each recording, measurements were performed on the averaged responses to at least ten identical stimuli.
Sensory related conduction velocity (SNCV) was calculated by division of the distance between the stimulating cathodes by the difference between the correspondent latencies obtained from the two sites of stimulation.

[3] = Body weight of CMT rats during treatment; type: in vivo, rat; details: treated group comparatively with placebo group, data not shown
Experimental: The animals are weighted twice a week in order to adjust the doses to growing body weight. If the osmotic pump is chosen for the treatment administration, the doses of the drug are calculated on the basis of the estimated mean body weight of the animals expected for their age over the period of the pump duration (6 weeks). The pumps are re-implanted if necessary, with the appropriated anaesthesia protocol.
Body weights, overt signs (coat appearance, body posture, tremor) of the animals are monitored throughout the experiment. The rating scale is used for recording: 0=normal, 1=abnormal.

Row | SMILES | decrease of PMP22 protein level of expression ([1]; 24 hrs of incubation) | change of PMP22 protein level of expression ([1]; 48 hrs of incubation, p<0.001) | SNAP (sensitive nerve potential amplitude), distal portion of the tail [2] | SNAP (sensitive nerve potential amplitude), distal portion of the tail ([2]; listed as compound B) | entire body weight [3]
1 | CC[C@@H]1C(=O)OC[C@@H]1Cc1cncn1C [pilocarpine, (3S,4R)-3-ethyl-4-[(3-methylimidazol-4-yl)methyl]oxolan-2-one] | 38% | −18% | failed to reach statistical significance | approaching the nominal 5% threshold for significance | 
2 | Cn1cc[nH]c1=S [methimazole, 1-methyl-3H-imidazole-2-thione] |  |  | significantly improved |  | rather diminished
